The text below walks through data of PMC5822683 (Inflammation, 2014).

Data set [1] has as its system LPS-stimulated whole human blood. The following applies: 40 μg/ml, LPS 1 μg/ml, 3 h at 37 °C.
The test system of another data set is leukocytes. The following applies: ref [24]; cited from earlier work.
The test system of data set [2] is IL-8-stimulated human neutrophils.
For data set [3] the following is noted: statement in the discussion, no reference given; cited from earlier work.
In data set [4] the test system is LPS-stimulated isolated human leukocytes. The following applies: 40 μg/ml, LPS 1 μg/ml, n=3.
Data set [5] concerns TNF-α-stimulated whole human blood. The following applies: 40 μg/ml, human TNF-α 10 ng/ml, 6 h at 37 °C, n=4 (Fig. 2).
For the next data set, the system named is rodents. The conditions noted are these: compared with L-4F doses studied here (Fig. S4).
Data set [6] deals with lipopolysaccharide-binding protein (LBP). The conditions noted are these: ref [21]; cited from earlier work.
Data set [7] has as its system LPS-stimulated isolated human neutrophils.
For data set [8] the following is noted: ref [21], [48]; cited from earlier work.
Data set [9] relates to animal models of acute inflammation / severe sepsis. The following applies: cited from earlier work.
Data set [10] relates to human neutrophils stimulated by septic patient serum. The following applies: ref [24], cited from earlier work.
For data set [11] the following is noted: compared with human apoA-I; ref [37]; cited from earlier work.
In the next data set the test system is primary human monocytes. The following applies: ref [28]; cited from earlier work.
A further data set concerns paraoxonase 1. The following applies: ref [20], [41]; cited from earlier work.
Data set [12] concerns LPS-stimulated isolated human neutrophils. The conditions noted are these: 50 % donor plasma, 40 μg/ml.
Data set [13] has as its system human monocyte-derived macrophages. The following applies: ref [29]; cited from earlier work.
Data set [14] relates to patients with high-risk cardiovascular disease. The conditions noted are these: selected groups of patients with high-risk cardiovascular disease; ref [55], [56]; cited from earlier work.

Where a SMILES comes first, the peptide text is derived from it.

Regarding `CC(=O)N[C@@H](CC(=O)O)C(=O)N[C@@H](Cc1c[nH]c2ccccc12)C(=O)N[C@@H](Cc1ccccc1)C(=O)N[C@@H](CCCCN)C(=O)N[C@@H](C)C(=O)N[C@@H](Cc1ccccc1)C(=O)N[C@@H](Cc1ccc(O)cc1)C(=O)N[C@@H](CC(=O)O)C(=O)N[C@@H](CCCCN)C(=O)N[C@H](C(=O)N[C@@H](C)C(=O)N[C@@H](CCC(=O)O)C(=O)N[C@@H](CCCCN)C(=O)N[C@@H](Cc1ccccc1)C(=O)N[C@@H](CCCCN)C(=O)N[C@@H](CCC(=O)O)C(=O)N[C@@H](C)C(=O)N[C@@H](Cc1ccccc1)C(N)=O)C(C)C` [L-4F] (Ac-DWFKAFYDKVAEKFKEAF-NH2), the “effect on inflammatory response to LPS (TNF-α and IL-6)” value in data set [1] (ELISA, n=4 (Fig. 1)) is on record as “inhibits inflammatory response to LPS in blood to an equal extent”. Besides, in data set [1] (n=4/group, *P<0.05 vs. saline-treated LPS (Fig. 1A)), the “plasma level of TNF-α” value is “reduces plasma levels of TNF-α”. In addition, the “plasma level of IL-6” value in data set [1] (n=4/group, *P<0.05 vs. saline-treated LPS (Fig. 1B)) is “reduces plasma levels of TNF-α (A) and IL-6”. For the same compound, in the data set on leukocytes, the “inhibition of binding of LPS to leukocytes” value is recorded as “inhibit binding of LPS to leukocytes”. In [2], the “effect on IL-8-induced increase of CD11b expression” value is reported as “only minimal effect” and the “effect on IL-8-induced increase of lipid rafts abundance” value is “only minimal effect”. The water solubility result in data set [3] is given as “high water solubility”. The “effect on LPS-mediated chemiluminescence (rate and peak)” value in [4] (5 or 50 % donor plasma, lucigenin 10 μM, 3 h at 37 °C, both P<0.05 vs. LPS (Fig. 9)) was “inhibits the rate as well as peak of LPS-mediated chemiluminescence”. In addition, the “inhibition of oxidative stress, L-4F vs. apoA-I” value in data set [4] (50 % plasma, 3 h, NS vs. apoA-I) is “the inhibitory effects of L-4F and apoA-I are similar”. Further, in data set [5], the “effect on TNF-α-mediated elevation of plasma IL-6” value is recorded as “does not reduce plasma levels of IL-6”. Moreover, the tolerability in rodents result in the data set on rodents is listed as “rodents were able to tolerate L-4F in much higher doses”. Besides, in data set [6], the “competition with LBP for binding with LPS” value was “compete with lipopolysaccharide-binding protein (LBP) for binding with LPS”. For the same compound, in [7], the “effect of agent alone on CD11b expression and lipid raft abundance” value was “Neither L-4F alone nor apoA-I alone affects CD11b expression and lipid raft abundance”; the “effect on LPS-increased CD11b expression” value is “inhibits this effect (P<0.05 vs. LPS, for L-4F at all time points and for apoA-I at 30 min, Fig. 3A, B)”; the “effect on LPS-increased lipid raft abundance” value was “inhibits this effect (P<0.05 vs. LPS, for L-4F at 1 and 3 h and for apoA-I at 1 h, Fig. 3C, D)”. Besides, the “interaction with LPS (co-localization of Bodipy-LPS and ^14C-L-4F in FPLC fractions)” value in data set [8] is “interaction of LPS and L-4F was strongly suggested”. For the same compound, the “dose with high efficiency in animal models of severe sepsis” value in data set [9] (L-4F, ref [22]–[24]) is on record as 10 mg/kg. The “effect in cecal ligation and puncture model of polymicrobial sepsis” value in data set [9] (cecal ligation and puncture, ref [22]) is “has protective effects”. Besides, in [9] (ref [22]–[25]), the “effect in animal models of acute inflammation” value is “reduces inflammatory response and improves survival”. Moreover, the effective concentration in data set [10] (concentration at which effective, L-4F) was 40 µg/mL. The “activation of neutrophils by septic patient serum” value in data set [10] is recorded as “inhibits activation of human neutrophils stimulated by septic patient serum”. For the same compound, in [11], the “binding affinity for pro-inflammatory oxidized lipids” value is recorded as “binds pro-inflammatory oxidized lipids with higher affinity than human apoA-I”. Besides, in the data set with primary human monocytes, the “cholesterol efflux and lipid raft abundance” value is “stimulate cholesterol efflux and reduce lipid raft abundance”. In addition, in the data set on paraoxonase 1, the “HDL-associated paraoxonase 1 activity” value is recorded as “increasing HDL-associated paraoxonase 1 activity”. Further, in data set [12] (LPS 1 μg/ml, 30 min, 1 h, 3 h (Fig. 5A)), the “effect on LPS-induced TNF-α levels” value was “inhibit this effect (P<0.05 vs. LPS, for 30 min and 1 h, Fig. 5A)”. Moreover, in data set [12] (LPS 1 μg/ml, 30 min, 1 h, 3 h (Fig. 5B)), the “effect on LPS-mediated MPO elevation” value was “only inhibitory effect of L-4F reaches statistical significance (P<0.05 vs. LPS, for 30 min and 3 h, Fig. 5B)”. Moreover, the “effect on LPS-mediated IL-6 increase” value in [12] (LPS 1 μg/ml, 3 h, cell media, n=3, ELISA (Fig. 6)) is “significantly inhibits LPS-mediated IL-6 increase (P<0.05 vs. LPS)”. In data set [12] (LPS-stimulated neutrophils), the “comparison with apoA-I, LPS-mediated increase in IL-6 levels” value was “tended to be superior in inhibiting LPS-mediated increase in IL-6 levels”.

For the compound Ac-DWFKAFYDKVAEKFKEAF-NH2 [4F], in data set [13], the “disruption of rafts and responsiveness of macrophages to LPS” value is “attenuating the responsiveness of macrophages to LPS”. In addition, the anti-inflammatory properties result in [9] (ref [19]–[21]) was “exerts strong anti-inflammatory properties”. Also, in data set [14], the “safety profile in patients” value is listed as “acceptable safety profile”.
